Experimental findings from patent publication US20080255244A1, “CaM Kinase II Inhibitor Improves Retinoic Acid Therapy and Inhibits the Proliferation of Myeloid Leukemia Cells” (Fred Hutchinson Cancer Research Center, priority 2007, published 2008) are described below.

Experiment [1] deals with Stat3 transcriptional activity in K562 cells. Description: Stat3 response element luciferase reporter in K562 cells. Format: cell-based, human. To be noted: 48 hours of culture. The procedure: FIG. 13. Stat3 is directly phosphorylated and activated by CaMKIIγ at Ser727. (A, i). Cell lysates from the indicated human leukemia cell lines were subjected to Western blots utilizing the indicated Stat3 antibodies. ii). Cell lysates from the same primary AML samples depicted in FIG. 1B were subjected to Western blots utilizing the indicated Stat3 antibodies. B). The IL-3 dependent TonB210.1 cells were deprived of IL-3 for 24 hours. The cells were then treated with the indicated compounds immediately prior to the addition of doxycycline. After an additional 24 hours cell lysates were harvested and subjected to Western blots with the indicated Stat3 antibodies. C). K562 cells were electroporated with a luciferase reporter driven by a Stat3 response element. The indicated concentrations of KN93 and the Stat 3 inhibitor, cucurbitacin I, were added and relative luciferase activity determined on cell lysates following 48 hours of culture. D, i) K562 cell lysates were immunoprecipitated with control IgG or a Stat3 antibody. […]
Transient transfections and luciferase assays. […] Stat3 transcriptional activity was determined in K562 cells transfected with the pSIE-tk-LUC luciferase reporter which harbors a Stat3 binding site ([…]). […]

The test system of experiment [2] is autophosphorylated CaMKIIγ in HL60 cells. The experiment can be described thus: Western blot of CaMKIIγ autophosphorylation in HL60 cells. The note with it: phospho-T286/7 antibody, ATRA 1 μM, TPA 0.1 μM. Type of experiment: cell-based, human. The method, then: (§1) FIG. 7. KN-62 regulates the differentiation of myeloid leukemia cell lines. (A) Wright Giemsa-stained HL-60 cells either (a) uninduced or treated for five days with (b) KN62 or (c) ATRA. (d) CD11b expression in HL-60 cells after five days exposure to KN62 (5 μM) or ATRA (1 μM). (B) Wright-Giemsa stained NB4 cells treated for five days with KN-62 (5 μM) and ATRA as indicated. […] (C) Cd11b expression of NB4 cells treated for five days with the indicated concentrations of RA and/or KN-62. (D) Western blots with the indicated antibodies were performed on HL60 cell lysates following incubation with KN62 for the indicated period of time. (E) Western blots of NB4 cell lysates following a five day incubation with the indicated compounds.
(§2) FIG. 9. Terminal differentiation/apoptosis of myeloid leukemia cells is associated with decreased CaMKIIγ activation. (A) Lysates from the HL60, NB4 and U937 myeloid cell lines treated with ATRA (1 μM) for the indicated period of time were subjected to Western blots. (B) Lysates from the indicated myeloid cell lines treated for five days with the indicated concentration of ATRA were subjected to Western blots. (C) Lysates from HL60 cells treated with TPA (0.1 μM) for the indicated time were subjected to Western blots. (D) Lysates from NB4 cells treated with arsenic trioxide (1 uM) for the indicated time were subjected to Western blots.
(§3) Protein extracts, Western blotting and co-immunoprecipitations. Westerns and co-immunoprecipitations were performed as previously detailed (Si, J., and Collins, S. J., Blood 100:4401-4409 (2002)).
(§4) Antibodies and Western blots. Protein extracts, immunoprecipitations and Western blots were performed as previously detailed (Si J, Collins S J. IL-3-induced enhancement of retinoic acid receptor activity is mediated through Stat5, which physically associates with retinoic acid receptors in an IL-3-dependent manner. Blood 100: 4401-9 (2002)). Antibodies against CaMKI, CaMKIIγ, CaMKIV, c-myc, Stat3, Stat5, calmodulin, as well as the phosphospecific CaMKII (T286, 287) and phosphospecific CaMKI (T177) antibodies were from Santa Cruz Biotechnology. Antibodies against phospho-Stat1 (Ser727), phospho-Stat3 (Ser727 and Tyr 705), phospho-Stat5 (Tyr 694), phospho-p44/42 MAP kinase (Thr202/Tyr 204), p44/42 MAP kinase, phospho-p38 MAP kinase (Thr 180/Tyr 182), phospho-GSK3β (Ser9) were from Cell Signaling Technology. Antibodies against Stat1, GSK3β, β-catenin, PP2Ac, and cyclin D1 were from BD Biosciences.
Background: Immunoblotting shows a protein as a band on a membrane.

The test system of another experiment is K562 cells. Description: K562 proliferation in liquid suspension culture (cell counts). Format: cell-based, human. The note with it: seeded at 5×10^4 cells/ml; cell counts.
The test system of experiment [3] is autophosphorylated CaMKIIγ in NB4 cells. Description: Western blot of CaMKIIγ autophosphorylation in NB4 cells. Type of experiment: cell-based, human. To be noted: single agent, ATRA 1 μM, arsenic trioxide 1 uM. The procedure:
as §1, §2, §3, §4

Experiment [4] concerns autophosphorylated CaMKIIγ in K562 cells. Description: Western blot of CaMKIIγ autophosphorylation in K562 cells. Format: cell-based, human. The note with it: for activated, autophosphorylated CaMKIIγ level: gleevec 5 uM, ATRA five days. The procedure:
as §2
FIG. 10. Inhibiting bcr-abl activity/expression inhibits CaMKIIγ activation. (A) Lysates from K562 cells undergoing growth arrest following treatment with gleevec (5 uM) for the indicated times were subjected to Western blots. (B) Lysates from TonB210.1 cells depleted of doxycycline for the indicated period of time were subjected to Western blots. (C) IL-3 dependent TonB210.1 cells were deprived of IL-3 for 24 hours (lane 1). The cells were then treated with the indicated compounds simultaneously with the addition of doxycycline (lanes 2-8). After 24 hours cell lysates were harvested and subjected to Western blots with the indicated CaMKII antibodies. (D) K562 cells were cultured for 48 hours with the indicated chemical inhibitors of specific signal transduction pathways. Cell lysates were harvested and subjected to Western blot analysis.
FIG. 12. CaMKII regulates multiple signal transduction pathways in myeloid cells. (A,B) Lysates from K562 cells cultured for the indicated time in KN93 were subjected to Western blots. (C) The K562 cells transduced as described in Materials and Methods with either (i) the doxycycline (DOX) inducible expression vector/transactivator harboring the full length, Lys^43 mutated, kinase dead CaMKIIγ (kdCaMKIIγ (Tet-on)) or (ii) the CaMKII shRNA generating plasmids, were cultured in liquid suspension in the presence or absence of DOX as indicated, and cell counts obtained after 48 hours. (D) Lysates from K562 cells transduced with the indicated vectors were subjected to Western blots utilizing the indicated antibodies. For lanes 2 and 4 doxycycline (DOX) treatment was for two days.
as §4

The subject of experiment [5] is autophosphorylated CaMKIIγ in TonB210.1 cells. Description: bcr-abl induced CaMKII autophosphorylation in TonB210.1 cells (Western blot). Type of experiment: cell-based. To be noted: TonB210.1 deprived of IL-3 for 24 hours, compound added with doxycycline.
Experiment [6] concerns RAR transcriptional activity in HL60 cells. The experiment can be described thus: RARE-driven luciferase reporter in HL60 cells. Type of experiment: cell-based, human. To be noted: six hours after treatment with ionomycin and ATRA. The method, then:
FIG. 1. CaM kinase isoform expression in hematopoietic cells. (A) The activity of an ATRA-responsive luciferase reporter (βRARE-tk-Luc, 25 μg) was assessed in electroporated HL60 cells six hours after treatment with the indicated concentrations of ionomycin and ATRA. (B) The activity of the luciferase reporter (βRARE-tk-Luc, 25 μg) was assessed in HL60 six hours after treatment with KN62 (5 uM), KN93 (5 uM) and ATRA (1 uM). (C) Western blots were performed utilizing the indicated antibodies. F9 (column 6) is a mouse embryonal carcinoma cell line. BaF3 (column 7) is a cultured pre-B cell line. BM cells (column 8) are kit-ligand dependent normal murine hematopoietic precursors. PT67 murine fibroblasts individually transduced with either rat CaMKIIα, human CaMKIα or human CaMKIV (column 9) together with brain lysates (column 1) serve as positive controls for the respective antibodies. (D) CaMK assays were performed on HL-60 cell lysates immunoprecipitated with the indicated antibodies.
Transient transfections and luciferase assays. Murine PT67 fibroblasts were transfected utilizing calcium phosphate precipitation. All hematopoietic cell lines were transiently transfected by electroporation as previously detailed (Johnson, B. et al., Molecular and Cellular Biology 19:3372-3382 (1999)). In the transient transfections the LXSN vector (M28248) served as the expression vector for the wild type and site-directed mutagenized CaMKII and RARα coding region cDNAs. Human cDNA homologous to the coding region of rat CaMKIINα, a CaMKII inhibitory protein, was obtained by RT-PCR from HL60 RNA and cloned into the LXSN vector. The RA-responsive luciferase reporter harbors the RARE from the RARβ2 promoter as previously detailed (Si, J., and Collins, S. J., Blood 100:4401-4409 (2002)). The PON838 plasmid, a β-galactosidase reporter driven by the β-actin promoter, was used as an internal control to determine transfection efficiency for calculating relative luciferase activity.
On the technique in general: Reporter assays use an easily measured gene product as a stand-in for the process of interest.

Entries after “also recorded” stand apart in the source; their conditions may differ.

Consider `CC(C)(O)/C=C/C(=O)[C@](C)(O)[C@H]1[C@H](O)C[C@@]2(C)[C@@H]3CC=C4[C@@H](C=C(O)C(=O)C4(C)C)[C@]3(C)C(=O)C[C@]12C` [cucurbitacin I], for which the “Stat3 responsive reporter activity” value in experiment [1] is recorded as “inhibit”. Turning to `CCCCCCCCCCCCCC(=O)O[C@@H]1[C@@H](C)[C@@]2(O)[C@@H](C=C(CO)C[C@]3(O)C(=O)C(C)=C[C@@H]23)[C@@H]2C(C)(C)[C@]12OC(C)=O` [TPA, phorbol myristate acetate], in experiment [2], the “activated, autophosphorylated CaMKIIγ level” value is recorded as “marked decrease”.

As to KN92, in the experiment with K562 cells, the K562 cell proliferation result was “did not significantly inhibit”. In the case of arsenic trioxide, in experiment [3], the “activated, autophosphorylated CaMKIIγ level” value was “downregulation”.

With `Cc1ccc(NC(=O)c2ccc(CN3CCN(C)CC3)cc2)cc1Nc1nccc(-c2cccnc2)n1` [imatinib], in experiment [4], the “total CaMKIIγ level” value is given as “no significant change” and the “activated, autophosphorylated CaMKIIγ level” value is recorded as “rapid, marked decrease”. The “activated, autophosphorylated CaMKIIγ level” value in experiment [4] (listed as gleevec) is reported as “downregulation”. Further, the K562 cell proliferation result in the experiment on K562 cells is recorded as “proliferative arrest”. As to `O=C(O)c1ccc2c3c1cccc3c(=O)n1c3ccccc3nc21` [STO609], the “bcr-abl (tet/doxycycline) restored CaMKII autophosphorylation” value in experiment [5] is “not inhibited”. The K562 cell proliferation entry with K562 cells is “did not significantly inhibit; also recorded: minimal effects”. Consider `C[C@H](CCC(=O)O)C[C@H](C)C[C@H](C)C(=O)/C=C(\O)[C@H](C)C[C@H](C)C/C=C/[C@@H](C)[C@@H](O)[C@@H](C)[C@@H](O)C[C@@H]1CC[C@@](C)([C@H]2CC[C@@](C)([C@@H](C)O)O2)O1` [ionomycin], for which the “ATRA-induced activity of RARE-driven luciferase reporter” value in experiment [6] is on record as “inhibited”.
